Assays:
Assay in all cases: Cell proliferation assay (CellTiter-Glo, intracellular ATP content)
Type in all cases: cell-based
MDA-MB-436 cells = conditions: MDA-MB-436, 144 h; inhibition of proliferation, human breast cancer cells, 6 days incubation
Excerpt: (§1) The following method evaluates the inhibitory effect of the compounds of the present disclosure on the proliferation of DLD1, DLD1^BRCA2−/−, and MDA-MB-436 cells via IC50 by measuring the intracellular ATP content. The experimental method was briefly described as follows: • I. Experimental materials and instruments • 1. DLD1, human colon cancer cells (Cobioer, Nanjing, CBP60037) • 2. DLD1^BRCa2−/−, human BRCA2 gene knock-out colon cancer cells (Creative biogene, CSC-RT0015) • 3. MDA-MB-436, human breast cancer cells (ATCC, HTB-130) • 4. Fetal bovine serum (GIBCO, 10091-148) • 5. CellTite-Glo reagent (Promega, G^7573) • 6. 96-well cell culture plate (corning, 3903) • 7. Pancreatin (invitrogen, 25200-072) • 8. Microplate reader (BMG, PHERAsta) • 9. Cell counter (Countstar, Shanghai, IC1000) • II. Experimental procedures • DLD1 cells were cultured in an RPMI-1640 medium containing 10% FBS, and passaged 2-3 times a week in a passage ratio of 1:6 or 1:8. During passage, the cells were digested by pancreatin, transferred to a centrifuge tube, and centrifuged for 3 min at 1200 rpm. The supernatant was discarded, and a fresh medium was added to resuspend the cells. To a 96-well cell culture plate, 180 μL of the cell suspension was added at a density of 2.78×10^3 cells/mL. To peripheral wells of the 96-well plate, only 180 μL of complete medium was added.
(§2) MDA-MB-436 cells were cultured in a Leibovitz's L-15 medium containing 10% FBS, 10 μg/mL insulin, and 16 µg/mL glutathione, and passaged 2-3 times a week in a passage ratio of 1:3 or 1:5. During passage, the cells were digested by pancreatin, transferred to a centrifuge tube, and centrifuged for 3 min at 1200 rpm. The supernatant was discarded, and a fresh medium was added to resuspend the cells. To a 96-well cell culture plate, 180 μL of the cell suspension was added at a density of 8.34×10^3 cells/mL. To peripheral wells of the 96-well plate, only 180 μL of complete medium was added.
(§3) The culture plate was incubated in an incubator for 24 h (37° C., 5% CO2).
(§4) The test samples were diluted to 2 mM in DMSO and serially 3-fold diluted to the 10th concentration. Blank and control wells were set. 5 μL of the serially diluted test compound solutions was added to 95 μL of fresh medium. 20 μL of the medium solution containing the compound described above was added to the plate. The plate was incubated in an incubator (37° C., 5% CO2) for 6 days. 90 μL of CellTiter-Glo reagent was added to each well of the 96-well cell culture plate. The plate was let stand for 5-10 min in the dark at room temperature. The chemiluminescence signals were read by a PHERAstar system, and the data were processed by GraphPad software.

DLD1 cells = conditions: DLD-1, 144 h; inhibition of proliferation, human colon cancer cells, 6 days incubation
Excerpt: as §1, §3, §4

DLD1^BRCA2−/− cells = conditions: 144 h; inhibition of proliferation, human BRCA2 gene knock-out colon cancer cells, 6 days incubation
Excerpt: as §1
as §2, with “DLD1^BRCA2−/−” for “MDA-MB-436”, “an RPMI-1640” for “a Leibovitz's L-15”, “FBS,” for “FBS, 10 μg/mL insulin, and 16 µg/mL glutathione,”, “1:6” for “1:3”, “1:8.” for “1:5.”
as §3, §4

Question: How did the IC50 (MDA-MB-436 cells) turn out when CCc1cc2ncc(CN3CCN4c5ccc(C(=O)NC)nc5N(C)CC4C3)cc2[nH]c1=O (racemic) [Example 7, (±)-3-((7-Ethyl-6-oxo-5,6-dihydro-1,5-naphthyridin-3-yl)methyl)-N,6-dimethyl-2,3,4,4a,5,6-hexahydro-1H-pyrazino[1,2-a]pyrido[2,3-e]pyrazine-8-carboxamide] was run?
Answer: Its IC50 is 18.7 nM.

Question: And the IC50 (DLD1 cells)?
Answer: Its IC50 is greater than 1000 nM.

Question: Which IC50 (MDA-MB-436 cells) does the source give for CCc1cc2ncc(CN3CCN4c5ccc(C(=O)NC)nc5NCC4C3)cc2[nH]c1=O (racemic) [Example 6, (±)-3-((7-Ethyl-6-oxo-5,6-dihydro-1,5-naphthyridin-3-yl)methyl)-N-methyl-2,3,4,4a,5,6-hexahydro-1H-pyrazino[1,2-a]pyrido[2,3-e]pyrazine-8-carboxamide] here?
Answer: The IC50 was 41.8 nM.

Question: What about the IC50 (DLD1 cells) of the same compound?
Answer: The IC50 was greater than 1000 nM.

Question: With CCc1cc2ncc(CN3CCN4c5ccc(C(=O)NC)nc5COC[C@H]4C3)cc2[nH]c1=O [Example 8, (R)-3-((7-Ethyl-6-oxo-5,6-dihydro-1,5-naphthyridin-3-yl)methyl)-N-methyl-1,2,3,4,4a,5-hexahydro-7H-pyrazino[2,1-c]pyrido[3,2-e][1,4]oxazepine-9-carboxamide] as the compound, how does the IC50 (DLD1^BRCA2−/− cells) read?
Answer: Its IC50 is 7.84 nM.

Question: And the IC50 (MDA-MB-436 cells)?
Answer: Its IC50 is 1.2 nM.

Question: And the IC50 (DLD1 cells)?
Answer: Its IC50 is greater than 1000 nM.

Question: With CCc1cc2ncc(CN3CCN4c5ccc(C(=O)NC)nc5OC[C@H]4C3)cc2[nH]c1=O [Example 2, (R)-3-((7-Ethyl-6-oxo-5,6-dihydro-1,5-naphthyridin-3-yl)methyl)-N-methyl-1,2,3,4,4a,5-hexahydropyrazino[1,2-d]pyrido[2,3-b][1,4]oxazine-8-carboxamide] as the compound, how does the IC50 (DLD1^BRCA2−/− cells) read?
Answer: The IC50 was 2.5 nM.

Question: And the IC50 (MDA-MB-436 cells)?
Answer: The IC50 was 1 nM.

Question: What about the IC50 (DLD1 cells) of the same compound?
Answer: Its IC50 is greater than 250 nM.

Question: CCc1cc2ncc(CN3CCN4c5ccc(C(=O)NC)nc5OCC4C3)cc2[nH]c1=O (racemic) [Example 1, (±)-3-((7-Ethyl-6-oxo-5,6-dihydro-1,5-naphthyridin-3-yl)methyl)-N-methyl-1,2,3,4,4a,5-hexahydropyrazino[1,2-d]pyrido[2,3-b][1,4]oxazine-8-carboxamide] was tested. Which IC50 (DLD1^BRCA2−/− cells) did it give?
Answer: The IC50 was 7.9 nM.

Question: And the IC50 (MDA-MB-436 cells)?
Answer: Its IC50 is 5.8 nM.

Question: What about the IC50 (DLD1 cells) of the same compound?
Answer: The IC50 was greater than 1000 nM.

Question: Which results are given for CCc1cc2ncc(CN3CCN4c5ccc(C(=O)NC)nc5COCC4C3)cc2[nH]c1=O (racemic) [Example 3, (±)-3-((7-Ethyl-6-oxo-5,6-dihydro-1,5-naphthyridin-3-yl)methyl)-N-methyl-1,2,3,4,4a,5-hexahydro-7H-pyrazino[2,1-c]pyrido[3,2-e][1,4]oxazepine-9-carboxamide]?
Answer: IC50 (DLD1^BRCA2−/− cells): 5.8 nM; IC50 (MDA-MB-436 cells): 1.1 nM; IC50 (DLD1 cells): > 250 nM

From patent publication US20240287094A1, “NITROGEN-CONTAINING HETEROCYCLIC COMPOUND, PREPARATION METHOD THEREFOR, AND APPLICATION THEREOF IN MEDICINES” (Jiangsu Hengrui Pharmaceuticals Co., Ltd., priority 2021, published 2024)
